Where “and” joins values, the source holds several entries; their conditions need not be identical. Equal entries are not always repeated.
Columns and labels:
blood glucose levels [1] = experiment: Blood glucose after olanzapine minipump and zonisamide injections (Example 9); assay type: in vivo, Female Sprague-Dawley rats; conditions: rats; olanzapine 1.75 mg/day by minipump, zonisamide 26 mg/kg twice daily; 13 days after olanzapine implant, 6 days after zonisamide injections began; vehicle 92.2
Experimental: Female Sprague-Dawley rats, weighing about 235 grams at the start of the experiment were used. […] The rats were subsequently returned to their home cages after recovery. The minipumps delivered 5 μL per hour for 14 days. […] The animals were housed individually and supplied with standard laboratory chow. Food consumed and animal weights were recorded every day. […] Rats were allowed to recover after pump implantation, and then received twice daily injections of zonisamide 26 mg/kg. […] The results are shown below (Table 5).

blood glucose levels [2] = experiment: Insulin tolerance test, naltrexone and fluoxetine (Example 7); assay type: in vivo, Mice; conditions: for Blood glucose, 15 min / Blood glucose, 30 min / Blood glucose, 1 h / Blood glucose, 2 h / Blood glucose, Baseline: individual mice (n=3), I.P. fluoxetine 8.5 mg/kg and/or naltrexone 2.5 mg/kg; for Blood glucose, 15 min: 15 min after I.P. insulin; for Blood glucose, 30 min: 30 min after I.P. insulin; for Blood glucose, 1 h: 1 h after I.P. insulin; for Blood glucose, 2 h: 2 h after I.P. insulin; for Blood glucose, Baseline: baseline two hours post-injection, before I.P. insulin; for Effect on insulin tolerance / insulin resistance (in words): mice, fluoxetine 8.5 mg/kg, naltrexone 2.5 mg/kg I.P., compared with vehicle or either compound alone
Experimental: (§1) A baseline blood glucose determination was made two hours post-injection. Mice were then given a standard I.P. injection of insulin. Blood glucose levels were then followed for two hours (at 15 min, 30 min, 1 h and 2 h). […] Glucose levels are in mg/dl.

blood glucose levels [3] = experiment: Insulin tolerance test, naltrexone and bupropion, glucose AUC (Example 8); assay type: in vivo, mice; conditions: naltrexone 3 mg/kg, bupropion 50 mg/kg
Experimental: as §1
Total areas under the curve (AUC) were calculated based on glucose levels at each time point for each mouse. AUC is a summation of glucose levels observed at each time point.

SMILES: NS(=O)(=O)Cc1noc2ccccc12 [Zonisamide, zonisamide]
- Blood Glucose, Average (blood glucose levels [1]): 117.6 mg/dL

SMILES: Cc1cc2c(s1)Nc1ccccc1N=C2N1CCN(C)CC1 [Olanzapine, olanzapine]
- Blood Glucose, Average (blood glucose levels [1]): 120.4 mg/dL

SMILES: CNCCC(Oc1ccc(C(F)(F)F)cc1)c1ccccc1 (centres unmarked) [fluoxetine]
- Blood glucose, 15 min (blood glucose levels [2]): 63 mg/dL and 82 mg/dL and 84 mg/dL
- Blood glucose, 30 min (blood glucose levels [2]): 93 mg/dL and 90 mg/dL and 80 mg/dL
- Blood glucose, 1 h (blood glucose levels [2]): 118 mg/dL and 138 mg/dL and 89 mg/dL
- Blood glucose, 2 h (blood glucose levels [2]): 228 mg/dL and 169 mg/dL and 189 mg/dL
- Blood glucose, Baseline (blood glucose levels [2]): 135 mg/dL and 161 mg/dL and 145 mg/dL
- Effect on insulin tolerance / insulin resistance (in words) (blood glucose levels [2]): neither fluoxetine nor naltrexone alone had an effect on insulin tolerance

SMILES: O=C1CC[C@@]2(O)[C@H]3Cc4ccc(O)c5c4[C@@]2(CCN3CC2CC2)[C@H]1O5 [naltrexone]
- Blood glucose, 15 min (blood glucose levels [2]): 68 mg/dL and 62 mg/dL and 65 mg/dL
- Blood glucose, 30 min (blood glucose levels [2]): 84 mg/dL and 82 mg/dL and 81 mg/dL
- Blood glucose, 1 h (blood glucose levels [2]): 80 mg/dL and 127 mg/dL
- Blood glucose, 2 h (blood glucose levels [2]): 181 mg/dL and 175 mg/dL and 186 mg/dL
- Blood glucose, Baseline (blood glucose levels [2]): 137 mg/dL and 111 mg/dL and 134 mg/dL
- Effect on insulin tolerance / insulin resistance (in words) (blood glucose levels [2]): neither fluoxetine nor naltrexone alone had an effect on insulin tolerance

SMILES: CC(NC(C)(C)C)C(=O)c1cccc(Cl)c1 (centres unmarked) [Bupropion, bupropion]
- Total area under the curve (AUC) of glucose levels, each mouse (blood glucose levels [3]; individual mice (n=12), summation of glucose levels at each time point): 13613 and 12038 and 9083 and 14003 and 9668 and 8003 and 8715 (2×)
- Decrease in AUC versus vehicle (blood glucose levels [3]): 4.3%
- Mean AUC as % of vehicle AUC (blood glucose levels [3]; vehicle mean=11136.2): 95.7%

Source: US9457005B2, “Compositions and methods for increasing insulin sensitivity” (Orexigen Therapeutics, Inc., priority 2005, dated 2016)
